US7666890B2, “Synthesis and herbicidal activity of 1- (2-substituted benzo[d]thiazol-5-yl)-1H-1,2,4-triazol-5(4H)-one derivatives” (Huazhong Normal University, priority 2007, dated 2010)

How the values were obtained:
Assay in all cases: Test of herbicidal activities (greenhouse pot method)
Assay type in all cases: in vivo
Amaranthus retroflexus = conditions: single dose 300 g ai./h, treated before/after germination, 15 days later, greenhouse pot; for inhibition at 300 g/ha: Amaranthus retroflexus, 360 h, read-out: Herbicidal activity Amaranthus retroflexus (inhibition level)
Method in brief: (§1)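 Greenhouse pot test on weeds grown in mixed garden/mountain/humus soil at 15-30° C; pre- and post-emergence spray at a single dose of 300 g ai./h via automatic spraying tower (0.2 MPa). Inhibition scored after 15 days into five levels A (90-100%) to E (<50%); triplicate with blank control.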

Brassica juncea = conditions: single dose 300 g ai./h, treated before/after germination, 15 days later, greenhouse pot; for inhibition at 300 g/ha: Brassica juncea, 360 h, read-out: Herbicidal activity Brassica juncea (inhibition level)
Method in brief: as §1

Chenopodium album = conditions: single dose 300 g ai./h, treated before/after germination, 15 days later, greenhouse pot; for inhibition at 300 g/ha: Chenopodium album, 360 h, read-out: Herbicidal activity Chenopodium album (inhibition level)
Method in brief: as §1

Digiatria sanguinalis = conditions: single dose 300 g ai./h, treated before/after germination, 15 days later, greenhouse pot; for inhibition at 300 g/ha: 360 h, read-out: Herbicidal activity Digiatria sanguinalis (inhibition level)
Method in brief: as §1

Echinochloa crusgalli = conditions: single dose 300 g ai./h, treated before/after germination, 15 days later, greenhouse pot; for inhibition at 300 g/ha: Echinochloa crus-galli, 360 h, read-out: Herbicidal activity Echinochloa crusgalli (inhibition level)
Method in brief: as §1

Setaria viridis = conditions: single dose 300 g ai./h, treated before/after germination, 15 days later, greenhouse pot; for inhibition at 300 g/ha: Setaria viridis, 360 h, read-out: Herbicidal activity Setaria viridis (inhibition level)
Method in brief: as §1

SMILES	inhibition at 300 g/ha (Amaranthus retroflexus) [%]	inhibition at 300 g/ha (Brassica juncea) [%]	inhibition at 300 g/ha (Chenopodium album) [%]	inhibition at 300 g/ha (Digiatria sanguinalis) [%]	inhibition at 300 g/ha (Echinochloa crusgalli) [%]	inhibition at 300 g/ha (Setaria viridis) [%]	Herbicidal activity Amaranthus retroflexus (inhibition level) (Amaranthus retroflexus)	Herbicidal activity Brassica juncea (inhibition level) (Brassica juncea)	Herbicidal activity Chenopodium album (inhibition level) (Chenopodium album)	Herbicidal activity Digiatria sanguinalis (inhibition level) (Digiatria sanguinalis)	Herbicidal activity Echinochloa crusgalli (inhibition level) (Echinochloa crusgalli)	Herbicidal activity Setaria viridis (inhibition level) (Setaria viridis)
CCCS(=O)(=O)c1nc2cc(-n3nc(C)n(C)c3=O)c(F)cc2s1 [Compound 48, 1-(6-fluoro-2-(propylsulfonyl)benzo[d]thiazol-5-yl)-3,4-dimethyl-1H-1,2,4-triazol-5(4H)-one]	80 to 90	80 to 90	50 to 60	80 to 90	80 to 90	60 to 80						
C=CC[S+]([O-])c1nc2cc(-n3nc(C)n(C(F)F)c3=O)c(Br)cc2s1 (stereo not drawn) [Compound 117]							C (60 ≦ C < 80%)	C (60 ≦ C < 80%)	B (80 ≦ B < 90%)	B (80 ≦ B < 90%)	C (60 ≦ C < 80%)	E (E < 50%)
CCCSc1nc2cc(-n3nc(C)n(C(F)F)c3=O)c(Br)cc2s1 [Compound 81]							A (90 ≦ A ≦ 100%)	A (90 ≦ A ≦ 100%)	B (80 ≦ B < 90%)	D (50 ≦ D < 60%)	B (80 ≦ B < 90%)	B (80 ≦ B < 90%)
Cc1nn(-c2cc3nc(S(C)(=O)=O)sc3cc2Cl)c(=O)n1C(F)F [Compound 68]							A (90 ≦ A ≦ 100%)	B (80 ≦ B < 90%)	C (60 ≦ C < 80%)	B (80 ≦ B < 90%)	A (90 ≦ A ≦ 100%)	B (80 ≦ B < 90%)
CCOC(=O)C(C)Sc1nc2cc(-n3nc(C)n(C(F)F)c3=O)c(Br)cc2s1 (stereo not drawn) [Compound 87]							B (80 ≦ B < 90%)	A (90 ≦ A ≦ 100%)	B (80 ≦ B < 90%)	B (80 ≦ B < 90%)	B (80 ≦ B < 90%)	A (90 ≦ A ≦ 100%)
Cc1nn(-c2cc3nc(S(=O)(=O)Cc4cccc(Cl)c4)sc3cc2F)c(=O)n1C [Compound 36]							D (50 ≦ D < 60%)	C (60 ≦ C < 80%)	D (50 ≦ D < 60%)	C (60 ≦ C < 80%)	C (60 ≦ C < 80%)	D (50 ≦ D < 60%)
CCCCSc1nc2cc(-n3nc(C(F)(F)F)n(C(F)F)c3=O)c(Cl)cc2s1 [Compound 126]							B (80 ≦ B < 90%)	A (90 ≦ A ≦ 100%)	B (80 ≦ B < 90%)	A (90 ≦ A ≦ 100%)	B (80 ≦ B < 90%)	C (60 ≦ C < 80%)
CCCCSc1nc2cc(-n3nc(C)n(C(F)F)c3=O)c(Cl)cc2s1 [Compound 97]							B (80 ≦ B < 90%)	B (80 ≦ B < 90%)	B (80 ≦ B < 90%)	C (60 ≦ C < 80%)	B (80 ≦ B < 90%)	C (60 ≦ C < 80%)
CCOC(=O)C(C)Sc1nc2cc(-n3nc(C)n(C(F)F)c3=O)c(F)cc2s1 (stereo not drawn) [Compound 89]							B (80 ≦ B < 90%)	B (80 ≦ B < 90%)	C (60 ≦ C < 80%)	A (90 ≦ A ≦ 100%)	A (90 ≦ A ≦ 100%)	A (90 ≦ A ≦ 100%)
CCOC(=O)C(C)S(=O)(=O)c1nc2cc(-n3nc(C)n(C(F)F)c3=O)c(Br)cc2s1 (stereo not drawn) [Compound 59]							A (90 ≦ A ≦ 100%)	A (90 ≦ A ≦ 100%)	B (80 ≦ B < 90%)	C (60 ≦ C < 80%)	D (50 ≦ D < 60%)	C (60 ≦ C < 80%)
Cc1nn(-c2cc3nc(S(=O)(=O)Cc4ccc(F)cc4F)sc3cc2Cl)c(=O)n1C(F)F [Compound 45]							A (90 ≦ A ≦ 100%)	B (80 ≦ B < 90%)	B (80 ≦ B < 90%)	A (90 ≦ A ≦ 100%)	E (E < 50%)	C (60 ≦ C < 80%)
CCOC(=O)C[S+]([O-])c1nc2cc(-n3nc(C)n(C(F)F)c3=O)c(Br)cc2s1 (stereo not drawn) [Compound 111]							A (90 ≦ A ≦ 100%)	B (80 ≦ B < 90%)	E (E < 50%)	C (60 ≦ C < 80%)	A (90 ≦ A ≦ 100%)	C (60 ≦ C < 80%)
CCOC(=O)CSc1nc2cc(-n3nc(C(F)(F)F)n(C(F)F)c3=O)c(F)cc2s1 [Compound 122]							E (E < 50%)	E (E < 50%)	E (E < 50%)	E (E < 50%)	C (60 ≦ C < 80%)	E (E < 50%)
Cc1ccc(CS(=O)(=O)c2nc3cc(-n4nc(C)n(C(F)F)c4=O)c(F)cc3s2)cc1 [Compound 47]							A (90 ≦ A ≦ 100%)	A (90 ≦ A ≦ 100%)	C (60 ≦ C < 80%)	A (90 ≦ A ≦ 100%)	B (80 ≦ B < 90%)	C (60 ≦ C < 80%)
Cc1nn(-c2cc3nc(SCc4ccc(Cl)cc4)sc3cc2Br)c(=O)n1C(F)F [Compound 25]							E (E < 50%)	C (60 ≦ C < 80%)	E (E < 50%)	C (60 ≦ C < 80%)	D (50 ≦ D < 60%)	B (80 ≦ B < 90%)
CCOC(=O)CSc1nc2cc(-n3nc(C)n(C(F)F)c3=O)c(Cl)cc2s1 [Compound 98]	90 to 100	90 to 100	80 to 90	90 to 100	90 to 100	90 to 100						
CCOC(=O)CS(=O)(=O)c1nc2cc(-n3nc(C)n(C(F)F)c3=O)c(Br)cc2s1 [Compound 54]							B (80 ≦ B < 90%)	A (90 ≦ A ≦ 100%)	C (60 ≦ C < 80%)	C (60 ≦ C < 80%)	B (80 ≦ B < 90%)	D (50 ≦ D < 60%)
